Data taken from patent publication US20060229322A1, “Anhydrous crystalline form of valacyclovir hydrochloride” (priority 2002, published 2006).
Structures can show the parent of a compound that is named as a salt.

Key:
[1] = assay type: physicochemical
Description: (§1) Such stability is vital for a pharmaceutical since stocks thereof may be stored for long periods prior to use. […] The forms of the invention are therefore suitable for transport in countries where ambient temperatures are exceptionally high.

[2] = Storage stability of the anhydrous crystalline form at room temperature; assay type: physicochemical
Description: as §1

CC(C)[C@H](N)C(=O)OCCOCn1cnc2c(=O)[nH]c(N)nc21 [valacyclovir hydrochloride]
time for which stability is exhibited when heated [1]: over 550 hours
time shown to be stable [2]: over 3 years
